# Measurements: patent US7507727B2, “Substituted quinobenzoxazine analogs and methods of using thereof” (Cylene Pharmaceuticals, Inc., priority 2003, dated 2009)
# pIC50: −log10 of the molar value.
# Target: c-Myc template DNA (c-myc quadruplex)
# Assay: Quadruplex binding / stop assay (Taq polymerase arrest, capillary electrophoresis)
# Conditions: read-out: S DATA; Table 1D, stop assay data
row,pIC50,Compound
1,5.00,O=C(NCCN1CCCC1)c1cn2c3c(c(N4CCN(C(=O)C(F)(F)F)CC4)c(F)cc3c1=O)Oc1cc(Cl)ccc1-2 [compound 1821]
2,5.76,CN1CCCC1CCNC(=O)c1cn2c3c(c(-n4cncc4-c4cnccn4)c(F)cc3c1=O)Oc1cc3ccccc3cc1-2 (centres unmarked) [compound 1761]
3,5.14,O=C(NCCN1CCCC1)c1cn2c3c(c(NCCN4CCOCC4)c(F)cc3c1=O)Oc1cc(Cl)ccc1-2 [compound 1814]
4,< 4.82,CC(C)(C)OC(=O)NC1CCN(c2c(F)cc3c(=O)c(C(=O)NCCCCNC(=N)N)cn4c3c2Oc2ccccc2-4)C1 (centres unmarked) [compound 1632]
5,< 4.82,CC(C)N1CCN(c2c(F)cc3c(=O)c(C(=O)NCCN4CCOCC4)cn4c3c2Oc2cc(Cl)ccc2-4)CC1 [compound 1805]
6,5.76,CN1CCN(CCCNc2ccc3c(=O)c(C(=O)NCCN4CCOCC4)cn4c3c2Oc2cc3ccccc3cc2-4)CC1 [compound 1556]
7,< 4.82,NC1CCN(c2c(F)cc3c(=O)c(C(=O)NCC4CC4)cn4c3c2Oc2cc3ccccc3cc2-4)C1 (centres unmarked) [compound 1700]
8,6.47,N=C(N)NCCNC(=O)c1cn2c3c(c(NCCN4CCCC4)c(F)cc3c1=O)Oc1cc3ccccc3cc1-2 [compound 1653]
9,< 4.82,CC(C)N1CCN(c2c(F)cc3c(=O)c(C(=O)NCCCCN(C)C)cn4c3c2Oc2ccccc2-4)CC1 [compound 1567]

# Continued, molecule first:
row,Compound,pIC50
1,O=C(NCCN1CCCC1)c1cn2c3c(c(N4CC5CCCNC5C4)ccc3c1=O)Oc1ccccc1-2 (centres unmarked) [compound 1731],< 4.82
2,CN1CCCC1CCNC(=O)c1cn2c3c(c(NCCCN4CCOCC4)ccc3c1=O)Oc1cc3ccccc3cc1-2 (centres unmarked) [compound 1529],5.76
3,CC(C)N1CCN(c2c(F)cc3c(=O)c(C(=O)NC4CC(C)(C)NC(C)(C)C4)cn4c3c2Oc2ccccc2-4)CC1 [compound 1571],< 4.82
4,CN1CCN(CCCNc2c(F)cc3c(=O)c(C(=O)N4CCC(NC(=O)OC(C)(C)C)C4)cn4c3c2Oc2ccccc2-4)CC1 (centres unmarked) [compound 1574],< 4.82
5,NCCCNC(=O)c1cn2c3c(c(N4CCC(N)C4)c(F)cc3c1=O)Oc1cc3ccccc3cc1-2 (centres unmarked) [compound 1716],6.12
6,CN1CCCC1CCNC(=O)c1cn2c3c(c(NCC(C)(C)CO)c(F)cc3c1=O)Oc1cc3ccccc3cc1-2 (centres unmarked) [compound 1744],< 4.82
7,N=C(N)NCCCCNC(=O)c1cn2c3c(c(NCCN4CCCC4)c(F)cc3c1=O)Oc1ccccc1-2 [compound 1633],< 4.82
8,NC1CCN(c2c(F)cc3c(=O)c(C(=O)NCCCN4CCOCC4)cn4c3c2Oc2ccccc2-4)C1 (centres unmarked) [compound 1619],< 4.82
9,N=C(N)NCCCCNC(=O)c1cn2c3c(c(NCCCN4CCOCC4)c(F)cc3c1=O)Oc1cc3ccccc3cc1-2 [compound 1650],6.00
10,CC(C)N1CCN(c2c(F)cc3c(=O)c(C(=O)N4CCC(N)C4)cn4c3c2Oc2ccccc2-4)CC1 (centres unmarked) [compound 1627],< 4.82
11,CN1CCCC1CCNC(=O)c1cn2c3c(c(NCCCCCCO)c(F)cc3c1=O)Oc1cc3ccccc3cc1-2 (centres unmarked) [compound 1675],< 4.82
12,O=C(NCCN1CCOCC1)c1cn2c3c(c(SCCc4cnccn4)c(F)cc3c1=O)Oc1cc(Cl)ccc1-2 [compound 1788],< 4.82

# Same assay, conditions: read-out: Stop Data c-Myc μM; concentration at which 50% of the DNA was arrested (arrested:full-length 1:1)
row,IC50 [µM],Compound
1,2.5,CC(C)(C)OC(=O)N[C@@H]1CCN(c2c(F)cc3c(=O)c(C(=O)NCCCN4CCOCC4)cn4c3c2Oc2cc3ccccc3cc2-4)C1 [compound 62]
2,1.75,CN1CCCC1CCNC(=O)c1cn2c3c(c(NCCCN4CCOCC4)ccc3c1=O)Oc1cc3ccccc3cc1-2 (centres unmarked) [compound 273]
3,1.75,CN1CCCC1CCNc1c(F)cc2c(=O)c(C(=O)N3CC[C@H](N)C3)cn3c4cc5c(cc4oc1c23)c(=O)c1ccccc15 (some centres unmarked) [compound 215]
4,2.5,CC(C)(C)OC(=O)N[C@@H]1CCN(C(=O)c2cn3c4c(c(N5CC[C@@H](NC(=O)OC(C)(C)C)C5)c(F)cc4c2=O)Oc2cc4ccccc4cc2-3)C1 [compound 65]
5,0.64,N=C(N)NCCNC(=O)c1cn2c3c(c(N4CC5CCCNC5C4)c(F)cc3c1=O)Oc1cc3ccccc3cc1-2 (centres unmarked) [compound 471]
6,0.9,CN1CCN(CCCNC(=O)c2cn3c4cc5c(=O)c6ccccc6c(=O)c5cc4oc4c(F)c(F)cc(c2=O)c43)CC1 [compound 344]
7,1.75,O=C(NCCN1CCCC1)c1cn2c3c(c(F)c(F)cc3c1=O)Oc1cc3c(cc1-2)oc1ccccc13 [compound 113]
8,0.75,CN1CCCC1CCNC(=O)c1cn2c3c(c(N4CCC(N5CCCC5)CC4)c(F)cc3c1=O)Oc1cc3ccccc3cc1-2 (centres unmarked) [compound 434]
9,2.5,O=C(NCCN1CCCC1)c1cn2c3c(c(NCCN4CCOCC4)c(F)cc3c1=O)Oc1cc3ccccc3cc1-2 [compound 58]
10,0.75,CN1CCCC1CCNC(=O)c1cn2c3cc4oc5cc([N+](=O)[O-])ccc5[nH]c4cc3oc3c(NCCCN4CCOCC4)c(F)cc(c1=O)c32 (centres unmarked) [compound 408]
11,2.5,O=C(O)c1cn2c3c(c(NCCN4CCCC4)c(F)cc3c1=O)Oc1c-2ccc2ccccc12 [compound 3]
12,1,CC(C)NCCCNc1c(F)cc2c(=O)c(C(=O)N3CCOCC3)cn3c2c1Oc1cc2ccccc2cc1-3 [compound 316]
13,0.18,O=C(NCCN1CCCC1)c1cn2c3cc4c(cc3oc3c(N5CC6CCCNC6C5)c(F)cc(c1=O)c32)c(=O)c1ccccc14 (centres unmarked) [compound 590]
14,1.75,Nc1c(F)c(NCCCN2CCOCC2)c2c3c1c(=O)c(C(=O)O)cn3-c1cc3ccccc3cc1O2 [compound 14]
15,0.75,CN1CCN(CCCNc2ccc3c(=O)c(C(=O)NCCC4CCCN4C)cn4c3c2Oc2cc3ccccc3cc2-4)CC1 (centres unmarked) [compound 455]
16,0.75,CN(C)CCCCNC(=O)c1cn2c3c(c(N4CCC(N)C4)c(F)cc3c1=O)Oc1ccccc1-2 (centres unmarked) [compound 460]
17,1.75,CC(C)(C)OC(=O)NC1CCN(c2c(F)cc3c(=O)c(C(=O)NCc4nc5ccccc5[nH]4)cn4c3c2Oc2cc3ccccc3cc2-4)C1 (centres unmarked) [compound 184]

# The next lines start with the molecule.
row,Compound,IC50 [µM]
1,CN(C)CCCCNC(=O)c1cn2c3c(c(N4CCC(N)C4)ccc3c1=O)Oc1cc3ccccc3cc1-2 (centres unmarked) [compound 589],0.18
2,CC(C)CC(C)(C)CNC(=O)c1cn2c3c(c(N4CCC(NC(=O)OC(C)(C)C)C4)c(F)cc3c1=O)Oc1cc3ccccc3cc1-2 (centres unmarked) [compound 186],1.75
3,CN1CCCC1CCNC(=O)c1cn2c3c(c(F)c(F)cc3c1=O)Oc1cc3ccccc3cc1-2 (centres unmarked) [compound 101],2.25
4,CC(C)(C)OC(=O)NC1CCN(c2c(F)cc3c(=O)c(C(=O)NCC[N+](C)(C)C)cn4c3c2Oc2cc3ccccc3cc2-4)C1 (centres unmarked) [compound 188],1.75
5,N[C@@H]1CCN(C(=O)c2cn3c4c(c(NCCN5CCOCC5)c(F)cc4c2=O)Oc2c-3ccc3ccccc23)C1 [compound 84],2.5
6,CN(C)CCCCNC(=O)c1cn2c3cc4c(cc3oc3c(NCCC5CCCN5C)c(F)cc(c1=O)c32)c(=O)c1ccccc14 (centres unmarked) [compound 423],0.75
7,CN1CCCC1CCNc1c(F)cc2c(=O)c(C(=O)NCCCn3ccnc3)cn3c2c1Oc1cc2c(cc1-3)oc1ccccc12 (centres unmarked) [compound 159],1.75
8,CN1CCC(N(C)C(=O)c2cn3c4c(c(N5CCC(N)C5)c(F)cc4c2=O)Oc2cc4ccccc4cc2-3)CC1 (centres unmarked) [compound 198],1.75
9,CN1CCCC1CCNc1ccc2c(=O)c(C(=O)NCCN3CCOCC3)cn3c2c1Oc1cc2ccccc2cc1-3 (centres unmarked) [compound 271],1.75
10,CN1CCCN(C(=O)c2cn3c4c(c(N5CCC(N)C5)c(F)cc4c2=O)Oc2cc4ccccc4cc2-3)CC1 (centres unmarked) [compound 197],1.75
11,O=C(NCCCn1ccnc1)c1cn2c3c(c(NCCCn4ccnc4)c(F)cc3c1=O)Oc1cc3ccccc3cc1-2 [compound 40],2.5
12,CN(C)CCCCNc1c(F)cc2c(=O)c(C(=O)NCCCN3CCN(C)CC3)cn3c2c1Oc1c-3ccc2ccccc12 [compound 478],0.53
13,CN(C)CCCCNC(=O)c1cn2c3c(c(N4CCC(NC(=O)OC(C)(C)C)C4)c(F)c(N)c3c1=O)Oc1cc3ccccc3cc1-2 (centres unmarked) [compound 228],1.75
14,CC1CCN(CCCNc2c(F)cc3c(=O)c(C(=O)NCCC4CCCN4C)cn4c3c2Oc2cc3ccccc3cc2-4)CC1 (centres unmarked) [compound 438],0.75
15,CN1CCN(CCCNC(=O)c2cn3c4c(c(NCCC5CCCN5C)c(F)cc4c2=O)Oc2c-3ccc3ccccc23)CC1 (centres unmarked) [compound 549],0.375
16,CC1(C)CC(NC(=O)c2cn3c4c(c(N5CCC(NC(=O)OC(C)(C)C)C5)ccc4c2=O)Oc2cc4ccccc4cc2-3)CC(C)(C)N1 (centres unmarked) [compound 274],1.75
17,CN1CCCC1CCNc1c(F)cc2c(=O)c(C(=O)N3CCOCC3)cn3c2c1Oc1cc2ccccc2cc1-3 (centres unmarked) [compound 495],0.42
18,CN1CCCC1CCNC(=O)c1cn2c3c(c(NCCC4CCCN4C)c(F)cc3c1=O)Oc1c-2ccc2ccccc12 (centres unmarked) [compound 525],0.375
19,CN(C)CCCCNC(=O)c1cn2c3c(c(N)c(F)c(N4CC[C@H](N)C4)c3c1=O)Oc1cc3ccccc3cc1-2 [compound 190],1.75
20,NC1CCN(c2c(F)cc3c(=O)c(C(=O)NCc4nc5ccccc5[nH]4)cn4c3c2Oc2cc3ccccc3cc2-4)C1 (centres unmarked) [compound 196],1.75
21,NC1CCN(c2c(F)cc3c(=O)c(C(=O)NCCN4CCCCC4)cn4c3c2Oc2cc3ccccc3cc2-4)C1 (centres unmarked) [compound 195],1.75
22,CN(C)CCCCNC(=O)c1cn2c3cc4c(cc3oc3c(NCCN5CCOCC5)c(F)cc(c1=O)c32)c(=O)c1ccccc14 [compound 490],0.5
23,CN1CCCC1CCNC(=O)c1cn2c3c(c(N4CC[C@@H](NC(=O)OC(C)(C)C)C4)c(F)cc3c1=O)Oc1cc3ccccc3cc1-2 (some centres unmarked) [compound 120],1.75
24,CN1CCN(CCCNc2c(F)cc3c(=O)c(C(=O)NCCN4CCCC4)cn4c3c2Oc2cc3c(cc2-4)oc2ccccc23)CC1 [compound 152],1.75
25,CN1CCN(CCCNC(=O)c2cn3c4c(c(NCCN5CCOCC5)c(F)cc4c2=O)Oc2c-3ccc3ccccc23)CC1 [compound 130],1.75
26,CN1CCCC1CCNc1c(F)cc2c(=O)c(C(=O)NCCN3CCOCC3)cn3c2c1Oc1c-3ccc2ccccc12 (centres unmarked) [compound 134],1.75
27,Nc1c(F)c(NCCCN2CCOCC2)c2c3c1c(=O)c(C(=O)NCCN1CCOCC1)cn3-c1cc3ccccc3cc1O2 [compound 221],1.75
